Experiment [1] relates to ACE2. The experiment can be described thus: ACE2 degradation in WI-38 cells (cycloheximide time course, BafA1 lysosome inhibition). Type of experiment: cell-based, human. The conditions noted are these: WI-38 cells pretreated with BafA1 10 μM 30 min, then JGF 10 μg/mL 2 h. Here is the method:
Actin was used as the internal control. […] Actin was used as the internal control.
For example, it was examined whether JGF-induced ACE2 degradation is dependent on proteasome or lysosomal systems. Initially, the half-life of ACE2 in WI-38 cells was analyzed following treatment with cycloheximide (CHX), which is a ribosome inhibitor that blocks protein synthesis.

Experiment [2] has as its system SARS-CoV-2 S-mediated membrane fusion. Briefly: SARS-CoV-2 spike-mediated cell-cell fusion (syncytium formation) assay. Type of experiment: cell-based.

Data on two compounds can be found in patent publication US12653858B2, “Herbal composition, preparation method thereof and method for preventing or treating respiratory disorder by administering the same” (priority 2021, dated 2026).

In the case of `CO/C1=C\C(C)=C\[C@@H](C)[C@@H](O)[C@@H](C)C/C(C)=C/C=C/[C@H](OC)[C@@H]([C@@H](C)[C@@H](O)[C@H](C)[C@@]2(O)C[C@@H](O)[C@H](C)[C@@H](C(C)C)O2)OC1=O` [BafA1], the “ACE2 level after JGF treatment with lysosome inhibitor” value in experiment [1] is given as “recovered the ACE2 level”.
Take `CN(C)C(=O)COC(=O)Cc1ccc(OC(=O)c2ccc(NC(=N)N)cc2)cc1` [camostat]: the Formation of syncytium entry in experiment [2] is reported as “inhibition of syncytium formation”.
